Measurements from article PMC9374744, “Structural basis for receptor selectivity and inverse agonism in S1P5 receptors” (Nature Communications, 2022).

Target: T1, S1P5 (Homo sapiens, UniProt Q9H228, G231K/G234L/INS226[…]/INS240[…]/P227A/P230V/R224A/R225D/R229Q/R239A/S237M/T232D/T236K/T238R)
T1 construct: The C-terminus was truncated after Val321; hemagglutinin signal peptide (HA; […]) (N); FLAG-tag (N); Ala-Gly-Arg-Ala linker (N); PreScission cleavage site (C); 10× His tag (C, cleaved yes); made in house; host or cells: Sf9 insect cells (baculovirus, Bac-to-Bac)
Assay: Microscale fluorescent (CPM) thermal stability assay
Format: binding
Conditions: CPM fluorescence thermal shift; purified S1P5 crystallization construct
Description: Cells were thawed and lysed by repetitive washes (Dounce homogenization on ice, and centrifugation at 128,600×g for 30 min at 4 °C) in hypotonic buffer (10 mM HEPES pH 7.5, 20 mM KCl, and 10 mM MgCl2) and high osmotic buffer (10 mM HEPES pH 7.5, 20 mM KCl, 10 mM MgCl2, and 1 M NaCl) with an addition of protease inhibitor cocktail [PIC; 500 µM 4-(2-aminoethyl)benzenesulfonyl fluoride hydrochloride (Gold Biotechnology), 1 µM E-64 (Cayman Chemical), 1 µM leupeptin (Cayman Chemical), 150 nM aprotinin (A.G. Scientific)] with the ratio of 50 μl per 100 ml of lysis buffer. […] Stability and stabilizing effect of the ligand were measured by microscale fluorescent thermal stability assay[55] […]
Microscale fluorescent thermal stability assay[55] was conducted using a CPM dye (7-Diethylamino-3-(4-maleimidophenyl)-4-methylcoumarin, Invitrogen) dissolved in DMF at 10 mM. […] 1 µg of the target protein was added to 50 µL of working buffer (25 mM HEPES, 250 mM NaCl, 10%v/v glycerol, 0.05%w/v DDM, 0.01%w/v CHS) with CPM, and the melting curve was recorded on a Rotor-Gene Q real-time PCR cycler (Qiagen) using a temperature ramp from 28 to 98 °С with 2 °С/min rate. The fluorescence signal was measured in the Blue channel (excitation 365 nm, emission 460 nm), and the melting temperature was calculated as the maximum of the fluorescence signal derivative with respect to temperature.

T1 sequence (Q9H228 other isoform, or with tags, fused parts or gaps with the stated changes): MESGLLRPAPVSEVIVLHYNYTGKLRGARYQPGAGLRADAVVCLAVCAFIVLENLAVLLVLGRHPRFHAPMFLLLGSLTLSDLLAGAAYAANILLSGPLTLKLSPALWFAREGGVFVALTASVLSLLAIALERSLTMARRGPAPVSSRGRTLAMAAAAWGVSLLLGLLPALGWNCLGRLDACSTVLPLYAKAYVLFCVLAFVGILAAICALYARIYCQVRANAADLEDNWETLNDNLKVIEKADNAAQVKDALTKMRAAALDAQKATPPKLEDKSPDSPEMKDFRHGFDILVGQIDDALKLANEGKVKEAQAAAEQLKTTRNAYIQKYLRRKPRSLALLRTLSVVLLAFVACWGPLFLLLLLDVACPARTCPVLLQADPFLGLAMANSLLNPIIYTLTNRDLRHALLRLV

O=C(O)CCCN1CCc2cccc(OCCc3cccc4ccccc34)c2CC1 [ONO-5430608, 4-{6-[2-(1-naphthyl)ethoxy]-1,2,4,5-tetrahydro-3H-3-benzazepin-3-yl} butanoic acid]
increase of the thermal stability of S1P5: 19 °C
